Assay results as given in patent US10058544B2, “(S)-N-(3-(6-isopropoxypyridin-3-yl)-1H-indazol-5-yl)-1-(2-(4-(4-(1-methyl-1H-1,2,4-triazol-3-yl)phenyl)-3,6-dihydropyridin-1(2H)-yl)-2-oxoethyl)-3-(methylthio)pyrrolidine-3-carboxamide compositions for pharmaceutical preparations” (Merck Sharp & Dohme Corp., priority 2014, dated 2018).
Structures can show the parent of a compound that is named as a salt.

Tests used:
[1] = Physical form composition of active ingredient in tablets prepared using roller compaction; format: physicochemical
Excerpt: (S)—N-(3-(6-isopropoxypyridin-3-yl)-1H-indazol-5-yl)-1-(2-(4-(4-(1-methyl-1H-1,2,4-triazol-3-yl)phenyl)-3,6-dihydropyridin-1(2H)-yl)-2-oxoethyl)-3-(methylthio)pyrrolidine-3-carboxamide crystalline form 1 HCl was subjected to roller compaction in order to create a granular composition for subsequent use in preparing tablets of (S)—N-(3-(6-isopropoxypyridin-3-yl)-1H-indazol-5-yl)-1-(2-(4-(4-(1-methyl-1H-1,2,4-triazol-3-yl)phenyl)-3,6-dihydropyridin-1(2H)-yl)-2-oxoethyl)-3-(methylthio)pyrrolidine-3-carboxamide crystalline form 1 HCl.
Three tablets (RC-1, RC-2 and RC-3) having the following amounts (weight %) of ingredients were prepared using roller compaction.
The following procedure was followed: • 1. Blend colloidal silicon dioxide and (S)—N-(3-(6-isopropoxypyridin-3-yl)-1H-indazol-5-yl)-1-(2-(4-(4-(1-methyl-1H-1,2,4-triazol-3-yl)phenyl)-3,6-dihydropyridin-1(2H)-yl)-2-oxoethyl)-3-(methylthio)pyrrolidine-3-carboxamide crystalline form 1 HCl in a blender. • 2. Delump the blend using a screen. • 3. Blend lactose monohydrate, microcrystalline cellulose (Avicel 102), and disintegrant (croscarmellose sodium or crospovidone) with the delumped materials from step 2 using a blender. • 4. Add prescreened magnesium stearate lubricant to the blend of step 3 and blend. • 5. Roller compact the blend resulting from step 4 • 6. Screen the roller compacted ribbons through a mesh and add the resulting milled granules to a suitable bin. • 7. Add prescreened extragranular magnesium stearate lubricant to the bin and blend with the milled granules. • 8. Compress the final lubricated blend resulting from step 7 using a suitable rotary tablet press.
(§1) “LOD” refers to “limit of detection” and “<LOD” means the amount of indicated material, if any, was not detectable.

[2] = Physical form composition of active ingredient in tablets prepared using wet granulation; format: physicochemical
Procedure: Wet granulation of (S)—N-(3-(6-isopropoxypyridin-3-yl)-1H-indazol-5-yl)-1-(2-(4-(4-(1-methyl-1H-1,2,4-triazol-3-yl)phenyl)-3,6-dihydropyridin-1(2H)-yl)-2-oxoethyl)-3-(methylthio)pyrrolidine-3-carboxamide crystalline form 1 HCl was achieved using a high shear granulator. […] was alternatively achieved using a fluidized bed procedure.
Two tablets (1a and 1b) having the following amounts (weight %) of ingredients were prepared using wet granulation.
The following procedure was followed: • 1. Prepare a 20% binder solution by adding purified water and polyvinyl pyrrolidone K30 to a mixing vessel and stir until completely dissolved. • 2. Add lactose, microcrystalline cellulose (Avicel 102), (S)—N-(3-(6-isopropoxypyridin-3-yl)-1H-indazol-5-yl)-1-(2-(4-(4-(1-methyl-1H-1,2,4-triazol-3-yl)phenyl)-3,6-dihydropyridin-1(2H)-yl)-2-oxoethyl)-3-(methylthio)pyrrolidine-3-carboxamide crystalline form 1 HCl and a disintegrant (croscarmellose sodium or crospovidone) to a high shear granulator. • 3. Dry mix the ingredients using an impeller and chopper. • 4. Add the binder solution prepared in step 1 to the high shear granulator using a peristaltic pump and flexible tubing. • 5. Spray the binder solution to form wet granules. Additional mixing without spraying of the binder solution (also known as wet massing) may be used. • 6. Pass the wet granulation through a screen. • 7. Dry the granules using a tray dryer and dry heat. • 8. Pass the dried granules through a screen and add to a bin. • 9. Add extragranular disintegrant (croscarmellose sodium or crospovidone) to the materials in step 8 and blend. • 10. Add prescreened magnesium stearate lubricant to the bin and blend. • 11. Compress the lubricated blend resulting from step 10 using a suitable rotary tablet press. Fluidized Bed Granulation: • 1. Prepare a 20% binder solution by adding purified water and PVP K30 to a mixing vessel and stir until completely dissolved. • 2. Add lactose monohydrate, microcrystalline cellulose, (S)—N-(3-(6-isopropoxypyridin-3-yl)-1H-indazol-5-yl)-1-(2-(4-(4-(1-methyl-1H-1,2,4-triazol-3-yl)phenyl)-3,6-dihydropyridin-1(2H)-yl)-2-oxoethyl)-3-(methylthio)pyrrolidine-3-carboxamide crystalline form 1 HCl and croscarmellose sodium or crospovidone disintegrant to a fluid bed to form a mixture. • 3. Pre-heat the materials of step 2 using fluid air until the target bed temperature reaches 55°-60° C. • 4. Spray the binder solution prepared in step 1 onto the mixture resulting from step 2 to form wet granules. • 5. Fluidize and dry the wet granules resulting from step 4. • 6. Pass the dried granules through a screen and add to a bin • 7. Add extragranular croscarmellose sodium or crospovidone disintegrant to the dried granules and blend. • 8. Add prescreened magnesium stearate lubricant to the blend resulting from step 7 and blend. • 9. Compress the final lubricated blend using a suitable rotary tablet press.
as §1

[3] = share of total active ingredient
[4] = wet granulation tablets, <LOD = not detectable
[5] = wet granulation tablets, share of total active ingredient

F-1 FB (crystalline form 1 free base) amount ([1]; <LOD = not detectable): <LOD
Am FB (amorphous free base) amount [1, 3]: <LOD
Am HCl (amorphous HCl) amount [1, 3]: 7%
F-1 HCl (crystalline form 1 HCl) amount [1, 3]: 92%
disproportionation of crystalline form 1 HCl ([2]; wet granulation processing (high shear or fluidized bed)): no disproportionation
Am FB (amorphous free base) amount [2, 4]: LOD
F-1 FB (crystalline form 1 free base) amount [2, 4]: LOD
Am HCl (amorphous HCl) amount [2, 5]: 7%
F-1 HCl (crystalline form 1 HCl) amount [2, 5]: 92%
SMILES: CS[C@@]1(C(=O)Nc2ccc3[nH]nc(-c4ccc(OC(C)C)nc4)c3c2)CCN(CC(=O)N2CC=C(c3ccc(-c4ncn(C)n4)cc3)CC2)C1 [F-1 HCl, (S)—N-(3-(6-isopropoxypyridin-3-yl)-1H-indazol-5-yl)-1-(2-(4-(4-(1-methyl-1H-1,2,4-triazol-3-yl)phenyl)-3,6-dihydropyridin-1(2H)-yl)-2-oxoethyl)-3-(methylthio)pyrrolidine-3-carboxamide crystalline form 1 HCl]
